# In patent publication US20050261194A1, “Use of thymulin-like peptides for making pain-relieving medicines” (priority 2001, published 2005):
# How the values were obtained:
# Assay type in all cases: in vivo, rat
# TNF-α = TNF-α in hind paw skin after intraplantar ET (ELISA)
# Description: (§1) These experiments required tissue sampling. The animals were sacrificed by anesthesia (sodium penthiobarbital, 50 mg/kg) and the skin of the hind paws is sampled either at 1 h (for the determination of the TNFα) or at 4 h (for the determination of IL-1β, IL-6 and NGF) after the endotoxin injection.
# (§2) These tissue samples are weighed and then quick frozen and stored at −70° C. with a view of proceeding with the evaluation of IL-1β, TNFα, IL-6 and NGF.
# (§3) In another series of experiments, the tissues are taken as described above using different groups of rats; the one group being pretreated with TAP 30 minutes before injection of ET and the other group having been injected with TAP only.
# (§4) The tissues are homogenized in a phosphate buffer solution (PBS, pH=7.4), containing 0.4 M of NaCl, 0.05% of Tween-20®, 0.5% bovine serum albumin (BSA), 0.1 mM of phenylmethylsulfonyl fluoride, 0.1 mM of benzethonium chloride, 10 mM of EDTA and 20 KI/mL of aprotinin.
# (§5) The mixture is then centrifuged at 1,200 g for 60 minutes at 4° C. The cytokines and the NFG contained in the supernatant were measured using ELIZA assays. […]
# IL-1β = IL-1β in hind paw skin after intraplantar ET (ELISA)
# Description: as §1, §2, §3, §4, §5
# rats [1] = test: CCI (chronic constriction injury) mononeuropathy: allodynia and hyperpathy
# Description: Adult male Sprague-Dawley rats (250-300 g) were used for these trials. Over the period of the experiments, the rats were placed under standard conditions (4 to 5 individuals to a cage, 12 hour day/night cycle, 22.2° C.), with free access to water and food. The necessary surgical procedures were done under deep anesthesia using ketamine (Ketalar®, 40-50 mg/kg, intraperitoneal injection), preceded by pre-anesthesia using chlorpromazine (8 mg/kg, idem) and atropine (0.05 mg/kg, idem).
# Mononeuropathy was induced in different groups of rats (n=6 rats in each group) according to the CCI (chronic constriction injury, chronic nerve constriction, Bennet G. J. et Xie Y. K., 1988, A peripheral mononeuropathy in rat that produces disorders of pain sensation like those seen in man, Pain, 33:87-107) or according to the SNI (spared nerve injury, spared nerve of the enervated paw, Decosterd I. et Woolf C. J., 2000, Spared nerve injury: an animal model of persistent peripheral neuropathic pain, Pain, 87:149-158). The sciatic nerve was exposed after dissection of the posterior hip and by incision through the skin and the fatty layer covering the popliteal fossa. For the CCI model, four loose ligatures (chromed catgut 4.0) were placed on the proximal side of the sciatic trifurcation. For the SNI model, the external popliteal sciatic nerve and the internal popliteal sciatic nerve were isolated, tightly ligatured and sectioned, while the sural nerve innervating the lateral aspect of the paw was left intact.
# The rats were placed in individual compartments of one cage, whose floor was made of a metal grating allowing access to the heel pad and to the lateral aspect of the paw with wires.
# For mechanical allodynia, the plantar surface of the hind paws (lateral surface for the SNI model and the median plantar surface for the CCI) was contacted with the von Frey wires (VFF 4.31 and 5.07, Stoelting Co., USA), which corresponded to the forces of 2.041 and 11.749 g (18.5 and 106.7 mN), respectively. […] The number of paw retractions induced by 10 trials was established for each rat on each hind paw prior to (baseline) and after induction of the mono-neuropathy. In normal rats, the low caliber wires (VFF 4.31) and higher caliber (VFF 5.07) induced an average 1.3±0.2 and 2.7±0.3 responses/10 trials, respectively.
# The method described by Choi et al. (1994, Behavioral signs of ongoing pain and cold allodynia in a rat model of neuropathic pain, Pain, 59:369-376) was used for evaluation of cold allodynia. It consists of applying several drops (approximately 50 μl) of an acetone solution on the paw and measuring the duration of the retraction reaction. One half second and 20 seconds are the values chosen arbitrarily for the minimum and maximum threshold, respectively.
# The duration (D) of retraction of the paw (RP) in response to a nociceptive ray of radiant heat oriented towards the plantar surface was established in the normal rat. […] the DRP after induction of the mononeuropathy was considered to be an indication of hyperalgesia. Each rat underwent two RP tests per session a minimum of every five minutes.
# The neuropathic manifestations were at maximum seven to ten days after induction of the neuropathy. The effects of the injections of TAP were tested during this period, which corresponds to the peak of the neuropathy.
# During the experiments done on rats suffering from neuropathy, allodynia and hyperpathy were evaluated in each group of animals with reference to the baseline condition established prior to induction of mononeuropathy. For example, the average of the number of paw withdrawal induced by each VFF was calculated for all of the rats of each group and the variation of this mean has been determined after treatment with TAP at different time periods after the injection. The same method has been followed for allodynia in the code and the hypertrophy relative to heat.
# rats [2] = test: Visceral pain induced by intraperitoneal injection of capsaicin; 4-level behavioral scale
# Description: This test consisted of injecting (i.p.) 20 μg of capsaicin in 100 μl of a 10% solution Tween 20 in olive oil in some rats and observing the behavior induced by these injections. A 4-level behavioral scale was designed according to the method described by Giesler G J et al., (1976, Inhibition of visceral pain by electrical stimulation of the periaqueductal gray matter, Pain 2:43-48).
# The levels were defined as follows: 0=normal behavior; 1=slight contraction of the abdominal muscles; 2=contraction of one single side and luxation of the haunch dropping; 3=significant contraction of the abdominal muscles and extension of the two rear paws.
# For the evaluation of the animals' behavior, each rat was placed in transparent cage placed over a mirror inclined at 45° for optimum observation.
# […] None of the two observers knew the injection administered nor the expected effects.
# For the injection i.p. of the capsaicin, the total time corresponding to each behavioral level was measured for the animals having received the capsaicin alone or the capsaicin after the TAP. The variation of the neuropathic manifestations or of the pain tests after the treatments were evaluated by ANOVA then by Bonfrerroni tests done post hoc. The variations of the pain scores with or without treatment were evaluated by the Student bilateral test by assuming a significance level of 5% (p<0.05).
# [3] = TAP 25 μg in control animals, no ET
substance,measurement,setting,value
Glu-Ala-lys-Ser-Gln-Gly-Gly-Ser-Asp (SQGGSD; N-terminal Glu-Ala-Lys; printed: Ser-Gln-Gly-Gly-Ser-Asp) [TAP],"change of TNF-α concentration, TAP alone",TNF-α; [3],did not induce significant change
same,effect on ET-induced increase of TNF-α concentration,"TNF-α; TAP pretreatment 30 min before ET, paw, one hour after ET, ET alone 345.0±61.0, saline 100.0±8.00 pg/paw",nullified the increase of the TNF-α concentration
same,"change of IL-1β concentration, TAP alone",IL-1β; [3],did not induce significant change
same,IL-1β concentration,"IL-1β; TAP pretreatment before intraplantar ET, ET alone 2850.6±255.4, saline 400.0±45.0, P<0.01",1686.0±266.0 pg/paw
same,"reversibility of the effects, time after injection","rats [1]; CCI, TAP 5 μg i.p.",three to four hours
same,time of maximum effect on cold allodynia after injection,"rats [1]; CCI, TAP 5 μg i.p.",75 min
same,time of maximum effect on hyperpathy after injection,"rats [1]; CCI, TAP 5 μg i.p.",75 min
same,time of maximum effect on mechanical allodynia after injection,"rats [1]; CCI, TAP 5 μg i.p.",two hours
same,dose giving maximal attenuation of the neuropathic manifestations,"rats [1]; CCI, doses 1, 5 and 25 μg compared, FIG. 7",5 μg/rat
same,"effect on neuropathic manifestations, CCI model","rats [1]; TAP 5 μg in 100 μl i.p., FIG. 5",significant attenuation
same,effect on nociception scores induced by capsaicin,"rats [2]; TAP 50 μg before capsaicin 20 μg i.p., FIG. 9",significant shift to the left
same,time at behavioral level 0,"rats [2]; TAP 50 μg in 200 μl/rat before capsaicin 20 μg i.p., capsaicin alone 0.2±0.3, 36 minutes observation",0.82 ± 0.18 min
same,time at behavioral level 1,"rats [2]; TAP 50 μg in 200 μl/rat before capsaicin 20 μg i.p., capsaicin alone 2.51±0.45, 36 minutes observation",12.89 ± 2.5 min
same,time at behavioral level 3,"rats [2]; TAP 50 μg in 200 μl/rat before capsaicin 20 μg i.p., capsaicin alone 11.84±0.43, 36 minutes observation",6.67 ± 0.09 min
same,time at behavioral level 2,"rats [2]; TAP 50 μg in 200 μl/rat before capsaicin 20 μg i.p., capsaicin alone 21.5±0.8, 36 minutes observation",15.62 ± 0.9 min
